Data as given in patent US9023837B2, “Androgen induced oxidative stress inhibitors” (Colby Pharmaceutical Company, priority 2010, dated 2015).
Where “and” joins values, the source holds several entries; their conditions need not be identical. Equal entries are not always repeated. Entries after “also recorded” stand apart in the source; their conditions may differ.

Tests used:
[1] = test system: LNCaP cells; assay: growth inhibition of LNCaP cells; format: cell-based, human; design: concentration range of cell growth inhibition: unit not given here; details: presence and absence of R1881
Experimental: (§1) Culture conditions for LNCaP androgen response studies included use of cells passage 40-90, hormone depleted media containing 4% charcoal-stripped FBS plus 1% non-stripped FBS (F1C4), and synthetic androgen R1881 (methyltrienolone; NEN, Boston, Mass.) at 1 nM for maximal induction of JunD and ROS as described before (17,19,20). For AR-JunD interaction studies in AR-transfected Hep3B cells, R1881 was used at 2 nM in F1C4 medium to maximally induce the AR.
(§2) Graded concentrations of each of the 8-10 designed peptides identified herein are further tested for their ability to inhibit growth of androgen-dependent LNCaP and LAPC-4 cells using a DNA fluorescence assay and androgen-induced ROS using DCFH dye oxidation assay.

[2] = target: T1, Androgen Receptor Ligand Binding Domain (AR-LBD) (Rattus norvegicus, UniProt P15207); assay: fluorescence polarization assay for AR-LBD binding; details: bicalutamide positive control
T1 sequence (P15207 651-882 limits assumed): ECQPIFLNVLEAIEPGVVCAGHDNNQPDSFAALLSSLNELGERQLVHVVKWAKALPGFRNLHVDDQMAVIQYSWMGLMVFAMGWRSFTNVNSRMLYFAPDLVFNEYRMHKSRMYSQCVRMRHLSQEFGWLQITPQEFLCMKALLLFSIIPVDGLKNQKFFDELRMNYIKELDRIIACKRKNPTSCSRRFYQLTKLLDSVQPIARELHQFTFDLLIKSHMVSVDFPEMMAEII
Description: Binding of bicalutamide with AR-LBD was used as a positive control.
Bicalutamide is used as a positive control.

[3] = test system: TRansgenic Adenocarcinoma in Mouse Prostate (TRAMP) animals; assay: TRAMP mouse model of prostate cancer; format: in vivo
Description: (§3) Described herein are molecules, such as for example, N,N′-butadienyl-butanediamine inhibitor of APAO or one of its pro-drugs or analogs, as shown in the figures disclosed herein in this application. […] SSAT promoter sequence, however, contains no AR-binding element (ARE).

[4] = test system: human CaP cells; assay: androgen-induced ROS production in human CaP cells; format: cell-based; details: pretreatment
Description: as §3

[5] = test system: LNCaP cells; assay: DCF dye oxidation assay, ROS in LNCaP cells; format: cell-based, human
Description: Described herein are tests for the effect of these three compounds on the androgen-induced ROS production in androgen-dependent LNCaP cells using the DCF dye oxidation assay (see the complete proposal). All data were normalized to the DCF dye fluorescence of control untreated LNCaP cells and expressed as percent of control.
as §1, §2

[6] = test system: SSAT promoter; assay: SSAT promoter luciferase reporter in LNCaP cells; format: cell-based, human; details: 1 nM R1881, 72 h
Experimental: The full length (FL) SSAT promoter sequence, kindly provided by Dr. Robert Casero (Johns Hopkins University, Baltimore, Md.), was amplified and cloned into pGL4-basic vector (Promega) with a firefly luciferase reporter gene. This vector, pGL4-SSAT-luc, was transiently transfected into our published (20) JunD-silenced (siJunD) and vector control LNCaP cell lines. Briefly, 5×10^5 siJunD or vector control LNCaP cells were seeded, then transfected one day later with […] pGL4-SSAT-luc DNA construct using Lipofectamine2000 (Invitrogen). After transfection, cells were treated with 1 nM R1881 or left untreated for 72 h, then lysed. Luciferase activity was measured in cell lysates by a luciferase assay system kit (Promega) following the manufacturer-supplied protocol.
The effect of AR activation by androgen on transcriptional activity of full length SSAT promoter and the necessity of JunD for such effect was studied in LNCaP cells stably transfected with either junD silenced (siJunD) or control vector that were then transiently transfected with a full length SSAT promoter-firefly luciferase reporter vector (FLSSAT-luc) followed by androgen treatment (FIGS. 4A,B). Androgen treatment (1 nM R1881) caused a significant>16-fold increase in SSAT promoter activity in vector control LNCaP cells (Control) compared to corresponding untreated cells (FIG. 4A, P=0.03). […]

[7] = test system: SSAT mRNA; assay: SSAT mRNA by qRT-PCR in LNCaP cells; format: cell-based, human
Experimental: Quantitative RT-PCR analysis of SSAT mRNA levels are performed.
The effect of AR activation by androgen on transcriptional activity of full length SSAT promoter and the necessity of JunD for such effect was studied in LNCaP cells stably transfected with either junD silenced (siJunD) or control vector that were then transiently transfected with a full length SSAT promoter-firefly luciferase reporter vector (FLSSAT-luc) followed by androgen treatment (FIGS. 4A,B). Androgen treatment (1 nM R1881) caused a significant>16-fold increase in SSAT promoter activity in vector control LNCaP cells (Control) compared to corresponding untreated cells (FIG. 4A, P=0.03). […] There is an androgen-induced increase in SSAT mRNA (˜10-fold) in siJunD cells, but this increase is much less than that observed in vector control cells (˜25-fold).

[8] = target: JunD-AR complex (Homo sapiens, UniProt P10275); details: Hep3B, 2 nM R1881, 48 h
Sequence of JunD-AR complex (P10275 whole entry): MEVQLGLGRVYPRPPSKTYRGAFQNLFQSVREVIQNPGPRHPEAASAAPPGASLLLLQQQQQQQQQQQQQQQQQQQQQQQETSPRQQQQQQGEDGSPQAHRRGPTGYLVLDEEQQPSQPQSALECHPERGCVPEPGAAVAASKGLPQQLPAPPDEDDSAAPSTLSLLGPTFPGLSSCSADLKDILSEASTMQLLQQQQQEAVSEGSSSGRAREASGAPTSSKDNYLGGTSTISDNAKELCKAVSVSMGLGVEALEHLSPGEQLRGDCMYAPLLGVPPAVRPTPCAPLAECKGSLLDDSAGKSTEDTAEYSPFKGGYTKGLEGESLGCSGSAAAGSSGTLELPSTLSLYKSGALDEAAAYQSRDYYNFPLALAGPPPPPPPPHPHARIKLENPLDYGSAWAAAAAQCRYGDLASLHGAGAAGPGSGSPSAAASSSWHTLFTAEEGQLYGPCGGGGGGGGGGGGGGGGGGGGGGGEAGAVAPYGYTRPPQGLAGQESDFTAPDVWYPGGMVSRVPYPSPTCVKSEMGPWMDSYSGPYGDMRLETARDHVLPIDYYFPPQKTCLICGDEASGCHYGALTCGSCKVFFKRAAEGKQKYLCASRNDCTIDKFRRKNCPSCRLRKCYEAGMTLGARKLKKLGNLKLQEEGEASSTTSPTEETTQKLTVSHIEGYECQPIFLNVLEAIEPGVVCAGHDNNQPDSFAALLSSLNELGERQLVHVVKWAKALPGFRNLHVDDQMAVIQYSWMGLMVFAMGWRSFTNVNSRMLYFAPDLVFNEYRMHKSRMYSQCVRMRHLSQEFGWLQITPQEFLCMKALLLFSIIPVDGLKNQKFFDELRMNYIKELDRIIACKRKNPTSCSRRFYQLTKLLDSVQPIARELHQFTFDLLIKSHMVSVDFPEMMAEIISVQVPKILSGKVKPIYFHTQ
Sequence of JunD-AR complex (P17535 whole entry partner): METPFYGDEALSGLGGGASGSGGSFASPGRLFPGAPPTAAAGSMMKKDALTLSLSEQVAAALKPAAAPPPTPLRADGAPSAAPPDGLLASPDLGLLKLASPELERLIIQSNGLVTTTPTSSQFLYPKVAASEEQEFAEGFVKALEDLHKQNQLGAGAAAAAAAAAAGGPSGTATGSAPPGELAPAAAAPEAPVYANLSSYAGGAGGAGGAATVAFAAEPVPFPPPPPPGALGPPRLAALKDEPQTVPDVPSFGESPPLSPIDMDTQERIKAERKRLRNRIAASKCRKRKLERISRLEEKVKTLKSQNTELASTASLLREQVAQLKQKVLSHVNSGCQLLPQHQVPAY
Experimental: The two vectors were co-transfected into Hep3B liver carcinoma cells with no AR background.
5×10^5 Hep3B cells were seeded, then one day later co-transfected with 3 g each of Gluc1-AR and JunD-Gluc2 constructs, or transfected with Gluc1-AR or JunD-Gluc2 alone as negative controls using Lipofectamine 2000 reagent (Invitrogen), following the manufacturer-supplied protocol. Two to three hours after transfection, cells were washed and refed DMEM without serum and treated with 2 nM R1881 for 48 h prior to collecting cell lysates. Corresponding untreated cells were used as negative controls.
Gaussia luciferase activity was measured in 25 μl of Hep3B cell lysates from R1881-treated or untreated control cells using a Gaussia luciferase assay kit from New England Biolabs (Ipswich, Mass.), following the manufacturer-supplied protocol.

[9] = target: AR-JunD immunocomplex (Homo sapiens, UniProt P10275, T878A); details: IP:JunD/WB:AR, 1 nM R1881, 72 h, normalized to β-actin
Sequence of AR-JunD immunocomplex (P10275 whole entry T878A): as the sequence (P10275 whole entry) above, with T878A counted along it
Sequence of AR-JunD immunocomplex (P17535 whole entry partner): as the sequence (P17535 whole entry partner) above
Experimental: For whole cell lysates, LNCaP cells were lysed using modified RIPA buffer containing complete protease inhibitors (Roche Applied Sciences, Indianapolis, Ind.). Nuclear and cytoplasmic fractions were prepared and checked for purity using NE-PER Nuclear and Cytoplasmic extraction reagents (Thermo Scientific, Pierce Biotechnology, Rockford, Ill.) following manufacturer-supplied protocols. For immunoprecipitation, lysates were pre-cleared by incubation with 50% Protein A-agarose slurry (Pierce, Rockford, Ill.). Six g of AR antibody and 500 μl pre-cleared lysate (500 μg total protein) were mixed and rocked overnight at 4° C. The immunocomplex was captured with 100 μl of 50% protein A-agarose slurry, then analyzed by western blotting using JunD antibody. The same immunoprecipitation procedure was repeated for capturing the immunocomplex using JunD antibody and western blotting using AR antibody. Proper controls with IgG and protein A-agarose were run in parallel.
To specifically investigate the effect of androgen, LNCaP cell lysates were prepared after incubation with 1 nM R1881 for 72 h and analyzed for co-immunoprecipitation of AR and JunD.

## O=C(O)CN(CC(=O)O)N1C(=O)c2ccccc2C1=O [2,2′-(1,3-dioxoisoindolin-2-ylazanediyl)diacetic acid]
[1]
  concentration of growth inhibition: sub-micromolar
[2]
  AR-LBD binding / anti-androgenic properties: no AR-LBD binding property; also recorded: no anti-androgenic properties

## C=C=CCNCCCCNCC=C=C [N,N′-butadienyl-butanediamine]
[3]
  CaP progression: significantly prevents
  oxidative stress in the prostate: markedly reduces
[4]
  androgen-induced ROS production: completely blocks

## NN(CC(=O)O)CC(=O)O
[1]
  concentration of growth inhibition: sub-micromolar
[2]
  AR-LBD binding / anti-androgenic properties: no AR-LBD binding property; also recorded: no anti-androgenic properties
[5]; LNCaP without R1881
  reduction of ROS levels in cells not treated with R1881: weak activity in reducing ROS levels

## C[C@]1(O)CC[C@H]2[C@@H]3CCC4=CC(=O)CCC4=C3C=C[C@@]21C [R1881, methyltrienolone]
[6]; siJunD LNCaP
  increase in SSAT promoter activity: small increase
[6]; vector control LNCaP
  increase in SSAT promoter activity: > 16 fold
[7]; JunD silenced (siJunD) LNCaP cells
  increase in SSAT mRNA (treated/untreated): ~10 fold
[7]; vector control LNCaP cells
  increase in SSAT mRNA (treated/untreated): ~25 fold and > 25 fold
[8]
  increase in reconstituted Gaussia luciferase activity versus untreated cells: ~10 fold and > 5 fold
[9]
  increase of AR-JunD immunocomplex in nuclear fraction: approximately 3 fold

## COC(=O)CN(N)CC(=O)OC [dimethyl 2,2′-(hydrazine-1,1-diyl)diacetate]
[1]
  concentration range of cell growth inhibition: 1-10
[2]
  AR-LBD binding / anti-androgenic properties: interaction with the AR-LBD that is comparable with that of bicalutamide
[5]; LNCaP with or without R1881
  effect on ROS levels under any condition: no effect on the ROS levels
other
  melting point: 166 °C
